# Reference: PubChem BioAssay (NCI)
# Several values for one entry are separate records, joined by “and”; a condition that tells them apart may be missing. Equal values may be shown once.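 96-well plates; 48 h exposure; 5 concentrations. Endpoints by linear interpolation between flanking doses. Not reached: highest tested concentration assigned. GI50 is the concentration that inhibits growth by half. Definition used: TGI = concentration required for complete inhibition of growth.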
# Tests used:
# Experiment in all cases: NCI tumour cell line growth inhibition, 48 h
# SK-OV-3 ovarian = test system: SK-OV-3 ovarian
# HOP-18 NSCLC = test system: HOP-18 NSCLC
# DMS 273 small cell lung = test system: DMS 273 small cell lung
# SF-268 CNS = test system: SF-268 CNS
# SNB-19 CNS = test system: SNB-19 CNS
# KM20L2 colon = test system: KM20L2 colon
# CAKI-1 renal = test system: CAKI-1 renal
# SR leukemia = test system: SR leukemia
# NCI/ADR-RES ovarian = test system: NCI/ADR-RES ovarian
# UACC-257 melanoma = test system: UACC-257 melanoma
# HOP-92 NSCLC = test system: HOP-92 NSCLC
# PC-3 prostate = test system: PC-3 prostate
# NCI-H23 lung = test system: NCI-H23 lung
# HCT-116 colon = test system: HCT-116 colon
# ACHN renal = test system: ACHN renal
# M19-MEL melanoma = test system: M19-MEL melanoma
# IGROV1 ovarian = test system: IGROV1 ovarian
# RPMI-8226 leukemia = test system: RPMI-8226 leukemia
# BT-549 breast = test system: BT-549 breast
# M14 melanoma = test system: M14 melanoma
# SF-539 CNS = test system: SF-539 CNS
# K-562 leukemia = test system: K-562 leukemia
# SW-620 colon = test system: SW-620 colon
# KM12 colon = test system: KM12 colon
# OVCAR-3 ovarian = test system: OVCAR-3 ovarian
# COLO 205 colon = test system: COLO 205 colon
# HCT-15 colon = test system: HCT-15 colon
# UO-31 renal = test system: UO-31 renal
# MALME-3M melanoma = test system: MALME-3M melanoma
# NCI-H226 lung = test system: NCI-H226 lung
# DLD-1 colon = test system: DLD-1 colon
# SNB-78 CNS = test system: SNB-78 CNS
# DMS 114 small cell lung = test system: DMS 114 small cell lung
# NCI-H522 lung = test system: NCI-H522 lung
# LOX IMVI melanoma = test system: LOX IMVI melanoma
# MDA-MB-435 = test system: MDA-MB-435
# P388/ADR leukemia = test system: P388/ADR leukemia
# TK-10 renal = test system: TK-10 renal
# OVCAR-5 ovarian = test system: OVCAR-5 ovarian
# MDA-MB-231 breast = test system: MDA-MB-231 breast
# NCI-H460 lung = test system: NCI-H460 lung
# HL-60(TB) leukemia = test system: HL-60(TB) leukemia
# OVCAR-4 ovarian = test system: OVCAR-4 ovarian
# HCC-2998 colon = test system: HCC-2998 colon
# CCRF-CEM leukemia = test system: CCRF-CEM leukemia
# SN12C renal = test system: SN12C renal
# HOP-62 NSCLC = test system: HOP-62 NSCLC
# SK-MEL-5 melanoma = test system: SK-MEL-5 melanoma
# T-47D breast = test system: T-47D breast
# SNB-75 CNS = test system: SNB-75 CNS
# MCF7 breast = test system: MCF7 breast
structure (smiles),measurement,setting,value
CCCCCCCCCCCC[C@@H](O)[C@H]1CC[C@H]([C@H](O)CCCC[C@H](O)CCCCC[C@@H](O)CC2=C[C@H](C)OC2=O)O1,TGI,SK-OV-3 ovarian,11.4 µM
same,TGI,HOP-18 NSCLC,15.5 µM
same,TGI,DMS 273 small cell lung,5.55 µM
same,GI50,SF-268 CNS,2.38 µM
same,TGI,SF-268 CNS,6.01 µM and 11.2 µM
same,GI50,SNB-19 CNS,2.32 µM
same,TGI,SNB-19 CNS,5.45 µM and 11.4 µM
same,TGI,KM20L2 colon,8.96 µM
same,GI50,CAKI-1 renal,5.39 µM
same,TGI,CAKI-1 renal,10.5 µM
same,GI50,SR leukemia,1.11 µM
same,TGI,SR leukemia,3.87 µM
same,TGI,NCI/ADR-RES ovarian,5.42 µM and 11.2 µM
same,GI50,UACC-257 melanoma,0.0724 µM
same,TGI,UACC-257 melanoma,5.68 µM and 3.36 µM
same,TGI,HOP-92 NSCLC,6.23 µM and 9.94 µM
same,GI50,PC-3 prostate,2.43 µM
same,TGI,PC-3 prostate,5.16 µM and 12.3 µM
same,GI50,NCI-H23 lung,< 0.051 µM
same,TGI,NCI-H23 lung,5.8 µM and 10.2 µM
same,GI50,HCT-116 colon,0.425 µM
same,TGI,HCT-116 colon,5.2 µM and 6.56 µM
same,GI50,ACHN renal,2.74 µM
same,TGI,ACHN renal,6.53 µM and 14.9 µM
same,TGI,M19-MEL melanoma,5.71 µM
same,GI50,IGROV1 ovarian,3.58 µM
same,TGI,IGROV1 ovarian,6.05 µM and 8.67 µM
same,GI50,RPMI-8226 leukemia,1.56 µM and 0.888 µM
same,TGI,RPMI-8226 leukemia,7.92 µM and 7.46 µM
same,TGI,BT-549 breast,24 µM
same,TGI,M14 melanoma,5.25 µM and 10.4 µM
same,GI50,SF-539 CNS,4.18 µM
same,TGI,SF-539 CNS,5.59 µM and 11.2 µM
same,GI50,K-562 leukemia,0.302 µM
same,TGI,K-562 leukemia,7.06 µM
same,TGI,SW-620 colon,6.58 µM and 12.9 µM
same,GI50,KM12 colon,1.98 µM
same,TGI,KM12 colon,5.17 µM and 12.3 µM
same,GI50,OVCAR-3 ovarian,1.41 µM and 1.56 µM
same,TGI,OVCAR-3 ovarian,2.71 µM and 4.05 µM
same,GI50,COLO 205 colon,3.47 µM
same,TGI,COLO 205 colon,3.52 µM
same,GI50,HCT-15 colon,2.83 µM
same,TGI,HCT-15 colon,5.8 µM and 9.73 µM
same,GI50,UO-31 renal,1.3 µM
same,TGI,UO-31 renal,5.11 µM and 7.51 µM
same,GI50,MALME-3M melanoma,3.49 µM
same,TGI,MALME-3M melanoma,8.59 µM
same,GI50,NCI-H226 lung,1.53 µM
same,TGI,NCI-H226 lung,3.54 µM and 18.2 µM
same,TGI,DLD-1 colon,11.5 µM
same,TGI,SNB-78 CNS,15.2 µM
same,TGI,DMS 114 small cell lung,0.371 µM
same,TGI,NCI-H522 lung,4.45 µM
same,GI50,LOX IMVI melanoma,0.809 µM
same,TGI,LOX IMVI melanoma,4.92 µM and 4.19 µM
same,GI50,MDA-MB-435,2.26 µM
same,TGI,MDA-MB-435,5.43 µM and 12 µM
same,TGI,P388/ADR leukemia,7.53 µM
same,GI50,TK-10 renal,3.94 µM
same,TGI,TK-10 renal,6.59 µM and 15.3 µM
same,GI50,OVCAR-5 ovarian,1.59 µM and 5.77 µM
same,TGI,OVCAR-5 ovarian,3.05 µM and 17.9 µM
same,GI50,MDA-MB-231 breast,2.86 µM
same,TGI,MDA-MB-231 breast,7.56 µM and 10.6 µM
same,GI50,NCI-H460 lung,2.4 µM
same,TGI,NCI-H460 lung,5.16 µM and 11.7 µM
same,GI50,HL-60(TB) leukemia,0.548 µM and < 0.0574 µM
same,TGI,HL-60(TB) leukemia,4.24 µM and 2.13 µM
same,TGI,OVCAR-4 ovarian,10.6 µM
same,TGI,HCC-2998 colon,10.6 µM
same,GI50,CCRF-CEM leukemia,1.98 µM
same,TGI,CCRF-CEM leukemia,7.58 µM
same,TGI,SN12C renal,7.66 µM and 15.6 µM
same,GI50,HOP-62 NSCLC,3.98 µM
same,TGI,HOP-62 NSCLC,5.41 µM and 10.6 µM
same,GI50,SK-MEL-5 melanoma,0.275 µM
same,TGI,SK-MEL-5 melanoma,7.16 µM and 2.21 µM
same,GI50,T-47D breast,1.74 µM
same,TGI,T-47D breast,14.1 µM
same,GI50,SNB-75 CNS,4.02 µM
same,TGI,SNB-75 CNS,7.77 µM and 10.3 µM
same,TGI,MCF7 breast,5.13 µM and 6.79 µM
CCN(CC)CCOc1cccc2nc3c(cc12)Cn1c-3cc2c(c1=O)COC(=O)C2(O)CC (centres undefined),GI50,SK-OV-3 ovarian,4.39 µM
same,TGI,SK-OV-3 ovarian,> 43.4 µM
same,GI50,HOP-18 NSCLC,2.34 µM and 2.65 µM
same,TGI,HOP-18 NSCLC,9.93 µM and 18.9 µM
same,GI50,DMS 273 small cell lung,0.086 µM and 0.33 µM
same,TGI,DMS 273 small cell lung,1.58 µM and 11.8 µM
same,GI50,SF-268 CNS,0.212 µM and 0.188 µM
same,TGI,SF-268 CNS,11.7 µM
same,GI50,SNB-19 CNS,0.329 µM and 0.87 µM
same,TGI,SNB-19 CNS,30.6 µM and > 58.1 µM
same,GI50,KM20L2 colon,2 µM
same,TGI,KM20L2 colon,14.4 µM
same,GI50,CAKI-1 renal,0.889 µM
same,TGI,CAKI-1 renal,13.8 µM
same,GI50,SR leukemia,0.169 µM
same,TGI,SR leukemia,0.716 µM
same,GI50,NCI/ADR-RES ovarian,0.886 µM and 3.07 µM
same,TGI,NCI/ADR-RES ovarian,18 µM and 19.1 µM
same,GI50,UACC-257 melanoma,11 µM and 7.08 µM
same,TGI,UACC-257 melanoma,23.1 µM and 21 µM
same,GI50,HOP-92 NSCLC,5.42 µM and 4.83 µM
same,TGI,HOP-92 NSCLC,22.5 µM and 18.3 µM
same,GI50,PC-3 prostate,4.62 µM
same,TGI,PC-3 prostate,> 100 µM
same,GI50,NCI-H23 lung,0.506 µM and 0.87 µM
same,TGI,NCI-H23 lung,4.19 µM and 4.86 µM
same,GI50,HCT-116 colon,0.403 µM and 1.29 µM
same,TGI,HCT-116 colon,10.9 µM and 14.2 µM
same,GI50,ACHN renal,0.675 µM
same,TGI,ACHN renal,> 100 µM
same,GI50,M19-MEL melanoma,3.74 µM and 2.38 µM
same,TGI,M19-MEL melanoma,18.5 µM and 17 µM
same,GI50,IGROV1 ovarian,5.77 µM and 4.63 µM
same,TGI,IGROV1 ovarian,21.6 µM and > 44.8 µM
same,GI50,RPMI-8226 leukemia,1.47 µM
same,TGI,RPMI-8226 leukemia,22.5 µM
same,GI50,BT-549 breast,2.99 µM
same,TGI,BT-549 breast,17.2 µM
same,GI50,M14 melanoma,1.11 µM
same,TGI,M14 melanoma,11.5 µM
same,GI50,SF-539 CNS,0.267 µM and 0.774 µM
same,TGI,SF-539 CNS,1.47 µM and 3.93 µM
same,GI50,K-562 leukemia,2.53 µM
same,TGI,K-562 leukemia,> 46.9 µM
same,GI50,SW-620 colon,2.17 µM and 4.33 µM
same,TGI,SW-620 colon,29.7 µM and 36.6 µM
same,GI50,KM12 colon,4.53 µM and 7.49 µM
same,TGI,KM12 colon,18.5 µM and 25.6 µM
same,GI50,OVCAR-3 ovarian,5.64 µM and 9.73 µM
same,TGI,OVCAR-3 ovarian,20.3 µM and 25.9 µM
same,GI50,COLO 205 colon,6.58 µM and 1.94 µM
same,TGI,COLO 205 colon,21.8 µM and 30.5 µM
same,GI50,HCT-15 colon,5.14 µM and 8.13 µM
same,TGI,HCT-15 colon,26.1 µM and 37.8 µM
same,GI50,UO-31 renal,1.8 µM and 3.19 µM
same,TGI,UO-31 renal,8.7 µM and 11.9 µM
same,GI50,MALME-3M melanoma,11.1 µM and 12.3 µM
same,TGI,MALME-3M melanoma,24.6 µM and 25 µM
same,GI50,NCI-H226 lung,0.963 µM and 2.23 µM
same,TGI,NCI-H226 lung,10.9 µM and 16.8 µM
same,GI50,DLD-1 colon,10.9 µM
same,TGI,DLD-1 colon,38.8 µM
same,GI50,SNB-78 CNS,14.1 µM
same,TGI,SNB-78 CNS,80.2 µM
same,GI50,DMS 114 small cell lung,0.139 µM and 0.206 µM
same,GI50,NCI-H522 lung,7.54 µM and 1.36 µM
same,TGI,NCI-H522 lung,23.1 µM and 14.5 µM
same,GI50,LOX IMVI melanoma,0.429 µM and 0.508 µM
same,TGI,LOX IMVI melanoma,11.3 µM and 12.1 µM
same,GI50,MDA-MB-435,12.2 µM
same,TGI,MDA-MB-435,28.2 µM
same,GI50,P388/ADR leukemia,2.56 µM
same,TGI,P388/ADR leukemia,8.27 µM
same,GI50,TK-10 renal,26.7 µM
same,TGI,TK-10 renal,> 100 µM
same,GI50,OVCAR-5 ovarian,0.45 µM and 3.46 µM
same,TGI,OVCAR-5 ovarian,3.81 µM and 32.7 µM
same,GI50,MDA-MB-231 breast,19.8 µM
same,TGI,MDA-MB-231 breast,46.4 µM
same,GI50,NCI-H460 lung,0.0754 µM and 0.282 µM
same,TGI,NCI-H460 lung,1.88 µM and 11.8 µM
same,GI50,HL-60(TB) leukemia,0.304 µM
same,TGI,HL-60(TB) leukemia,1.95 µM
same,GI50,OVCAR-4 ovarian,11.2 µM and 8.77 µM
same,TGI,OVCAR-4 ovarian,25.9 µM and 29.1 µM
same,GI50,HCC-2998 colon,7.1 µM
same,TGI,HCC-2998 colon,21.8 µM
same,GI50,CCRF-CEM leukemia,0.0125 µM and 0.0735 µM
same,TGI,CCRF-CEM leukemia,0.791 µM
same,GI50,SN12C renal,0.266 µM and 0.747 µM
same,TGI,SN12C renal,9.16 µM and > 41.5 µM
same,GI50,HOP-62 NSCLC,0.356 µM
same,TGI,HOP-62 NSCLC,2.63 µM
same,GI50,SK-MEL-5 melanoma,1.08 µM
same,TGI,SK-MEL-5 melanoma,6.31 µM
same,GI50,T-47D breast,0.739 µM
same,TGI,T-47D breast,7.25 µM
same,GI50,SNB-75 CNS,1.34 µM and 0.545 µM
same,TGI,SNB-75 CNS,19.5 µM and 5.09 µM
same,GI50,MCF7 breast,0.182 µM and 0.449 µM
same,TGI,MCF7 breast,14.9 µM and 22.4 µM
